For 105 compounds, Kd results are on record in PubChem BioAssay AID1552 (Sanford-Burnham Center for Chemical Genomics, 2009).

Activity calls are given as the source filed them. How the calls were made is not given here. A value given as a limit tells only on which side of the number the result lay.

The target of this test is Ubiquitin-conjugating enzyme E2 N (Homo sapiens) (UniProt P61088). Nature of the test: NMR detection of UBE2N ligand binding – biophysical, purified protein (AID 1552). The settings on record: NMR binding to purified UBE2N.
Chain of Ubiquitin-conjugating enzyme E2 N (Homo sapiens) (P61088 whole entry, looked up): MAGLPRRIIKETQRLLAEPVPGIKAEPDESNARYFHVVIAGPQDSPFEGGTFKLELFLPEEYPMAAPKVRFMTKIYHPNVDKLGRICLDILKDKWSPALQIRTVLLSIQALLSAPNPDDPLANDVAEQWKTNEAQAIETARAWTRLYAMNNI
For orientation: Kd means the free concentration of one partner at which half of the binding sites on the other are occupied at equilibrium, for simple one-to-one binding. As to `CC(=O)Nc1ccc(S(=O)(=O)NC(N)=O)cc1`, the Kd is > 4 mM (inactive).
With `CC(=O)c1cccc(NC(=O)C=C(C)C)c1` the figure was > 4 mM (inactive); with `Cc1nn(C)c2sc(CO)cc12`, > 4 mM (inactive).
For the compound `OCc1csc(-c2cccs2)n1`, the Kd is > 4 mM (inactive).
With `NCc1cccc2c1OCCCO2`, the Kd was > 4 mM (inactive).
For `COc1ccc2c(c1OC)C(=O)OC2[C@H]1c2c(cc3c(c2OC)OCO3)CCN1C` (stereo not given in full), the Kd is > 4 mM (inactive).
With `CSc1ccc(/C=c2\sc3ncnn3c2=O)cc1` the figure was > 4 mM (inactive); with `CC1CCc2cc(F)ccc2N1C(=O)c1ccc(=O)[nH]n1` (stereo not given), > 4 mM (inactive); with `Cc1occc1C(=O)Nc1ccc2c(c1)OCO2`, > 4 mM (inactive).
The value for `COC(=O)CSc1ncnc2c(C)csc12` was > 4 mM (inactive).
The value for `CN1C2C[C@H](OC(=O)[C@H](CO)c3ccccc3)C[C@H]1[C@@H](O)C2` was > 4 mM (inactive).
Regarding `O=c1ccn(Cc2ccccc2)c(=O)[nH]1`, the Kd is > 4 mM (inactive).
For `CC(C)(C)P(=O)(O)c1ccccc1`, the Kd is > 4 mM (inactive).
With `Nc1nnc(SCc2ccc3c(c2)OCO3)s1` the figure was > 4 mM (inactive).
For the compound `O=C(O)c1cn(-c2ccccc2)nc1-c1ccncc1`, the Kd was > 4 mM (inactive).
The value for `CC(=O)n1nc(-c2cccnc2)nc1N` was > 4 mM (inactive).
As to `CCN1CCC(NC2CCCCNC2=O)CC1` (stereo not given), the Kd was > 4 mM (inactive).
The value for `O=C(O)c1ccc2sccc2c1` was > 4 mM (inactive); that for `CCCCCC1C(=O)CCC1CC(=O)O` (stereo not given) was > 4 mM (inactive); that for `COc1cnn(-c2ccccc2)c(=O)c1N(C)C` was > 4 mM (inactive).
With `CC(C)c1ccc2c(c1)CCC1C(C)(C(N)=O)CCCC21C` (stereo not given) the figure was > 4 mM (inactive); with `O=C(O)c1ccc(-c2cnco2)cc1`, > 4 mM (inactive); with `CCS(=O)(=O)N1CCN(c2ccccc2F)CC1`, > 4 mM (inactive).
For the compound `CCOc1ccc(-c2c(=O)n(O)c3ccccc3[n+]2[O-])cc1`, the Kd is > 4 mM (inactive).
The value for `COc1cc(/C=C2\SC(=S)NC2=O)ccc1O` was > 4 mM (inactive); that for `Nc1cccc(S(N)(=O)=O)c1` was > 4 mM (inactive); that for `Cc1cc(NS(=O)(=O)Cc2ccccc2)no1` was > 4 mM (inactive).
With `O=C(c1ncc[nH]1)c1ccccc1C(=O)N1CCOCC1` the figure was > 4 mM (inactive).
With `CCCNC(=O)CSc1nnc(C)s1` the figure was > 4 mM (inactive); with `CC(=O)Nc1cccc(-c2n[nH]c(=S)n2C)c1`, > 4 mM (inactive); with `CC(C)/C(O)=C1/C(=O)O[C@@H](c2ccoc2)[C@]2(C)C(O)[C@@H](O)[C@@]34OC5(C)OC67CC(C)(C(O)[C@]6(O)[C@@H](O)[C@]3(O5)C12)[C@H](CC(=O)O)[C@]74C` (stereo not given in full), > 4 mM (inactive).
As to `CN1C2CC3C[C@H]1C(O3)C2O` (stereo not given in full), the Kd is > 4 mM (inactive).
With `O=C(NCN1CCOCC1)c1cccnc1`, the Kd was > 4 mM (inactive).
`Cn1c(=O)c2c(ncn2C)n(C)c1=O`: the Kd is > 4 mM (inactive).
With `CC1(C)N=C2C(=[N+]1[O-])CCC/C2=N\O`, the Kd was > 4 mM (inactive).
In the case of `CCOc1cccc(C(=O)c2ccc(O)c(O)c2O)c1`, the Kd is > 4 mM (inactive).
With `S=C1NC(=S)NC(c2ccc3c(c2)OCO3)N1` the figure was > 4 mM (inactive); with `Cn1nnc2cc(CN)ccc21`, > 4 mM (inactive).
For `Nc1cccc(C(=O)c2ccccc2)c1`, the Kd is > 4 mM (inactive).
With `CCOc1ccccc1C(=O)NC1=NCCS1` the figure was > 4 mM (inactive); with `O=C(O)CSCc1ccc(Cl)cc1`, > 4 mM (inactive); with `Fc1ccc(Br)cc1/C=N/n1cnnc1`, > 4 mM (inactive).
The value for `O=C1CCC(=O)N1c1cccnc1` was > 4 mM (inactive).
`CC(=O)Oc1ccc2c(c1)c(C(C)=O)c(C)n2C`: the Kd is > 4 mM (inactive).
With `O=C(c1cnsn1)N1CCN(c2ccccn2)CC1` the figure was > 4 mM (inactive).
With `NC(=O)C1CCN(C(=S)Nc2ccccc2)CC1` the figure was > 4 mM (inactive).
For the compound `NS(=O)(=O)c1ccc(N=Cc2ccc[nH]2)cc1`, the Kd is > 4 mM (inactive).
`c1cc2c(cc1[C@H]1OC[C@H]3[C@@H]1CO[C@H]3c1ccc3c(c1)OCO3)OCO2`: the Kd is > 4 mM (inactive).
Turning to `NC(=O)Cn1nc(-c2ccco2)ccc1=O`, the Kd was > 4 mM (inactive).
The value for `CC(C)(C)C(=O)Nc1nnc(SCC(N)=O)s1` was > 4 mM (inactive); that for `Nc1ccnc(C(=O)O)c1` was > 4 mM (inactive).
As to `NC(=O)CCn1c(=O)oc2ccccc21`, the Kd was > 4 mM (inactive).
With `CCOc1ccc(-c2n[nH]c(=S)n2C)cc1` the figure was > 4 mM (inactive).
The value for `COC(=O)c1sccc1S(=O)(=O)N1CCCC1` was > 4 mM (inactive); that for `NC(=O)C1(S(=O)(=O)c2ccccc2)CC1` was > 4 mM (inactive).
Turning to `CC(=O)NC1C(=O)Nc2c(C)cc(C)cc21` (stereo not given), the Kd was > 4 mM (inactive).
With `Cn1c(=O)n(-c2cccc(Cl)c2)c(=O)n1C` the figure was > 4 mM (inactive); with `O=C(O)c1ccc(CN2CCOCC2)cc1`, > 4 mM (inactive); with `COc1ccc(-c2ccc(=O)n(CC(N)=O)n2)cc1`, > 4 mM (inactive).
With `O=C1NC(=O)/C(=C/c2ccc(O)cc2)N1` the figure was > 4 mM (inactive).
The value for `COc1ccc(C2(C)CC(=O)NC2=O)cc1` (stereo not given) was > 4 mM (inactive).
As for `O=C1CSC(=NC(=O)c2ccccc2)N1`, the Kd is > 4 mM (inactive).
The value for `COc1ccc2c(c1)OCC(Cc1ccc(OC)c(OC(C)=O)c1)C2=O` (stereo not given) was > 4 mM (inactive).
For `CC(C)CCCC(C)C1CCC2C3C[C@@H](O)[C@@]4(O)C[C@@H](O)CC[C@]4(C)C3CC[C@]12C` (stereo not given in full), the Kd was > 4 mM (inactive).
The value for `CNC(Cc1c[nH]c2ccccc12)C(=O)O` (stereo not given) was > 4 mM (inactive); that for `CC(C)CC(=O)NC1CCSC1=O` (stereo not given) was > 4 mM (inactive); that for `O=C(CSc1ncn[nH]1)c1ccc2c(c1)OCO2` was > 4 mM (inactive).
With `O=C1CN(c2ccccc2)CC(=O)N1`, the Kd was > 4 mM (inactive).
`O=C(NCc1cccs1)c1nc2ncccn2n1`: the Kd was > 4 mM (inactive).
For `COC(=O)CCC(C)C1CCC2C3CCC4C[C@H](O)CC[C@]4(C)C3C[C@H](O)[C@]12C` (stereo not given in full), the Kd is > 4 mM (inactive).
Turning to `COC(=O)c1noc(C)c1C(C)=O`, the Kd is > 4 mM (inactive).
For `O=S1(=O)C=C(Nc2ccccc2)CC1`, the Kd was > 4 mM (inactive).
With `NC(=O)c1cccc(N2C(=O)C=CC2=O)c1` the figure was > 4 mM (inactive); with `CCc1ccccc1OCc1nnc(N)s1`, > 4 mM (inactive); with `NC(=O)Cn1nc(-c2ccc(F)cc2)ccc1=O`, > 4 mM (inactive).
The value for `Cc1ncoc1C(=O)Nc1ncc([N+](=O)[O-])s1` was > 4 mM (inactive).
With `Cn1cnc2nc3n(c2c1=O)CCC3` the figure was > 4 mM (inactive).
As for `O=C(Nc1cccc2cccnc12)c1cccnc1`, the Kd is > 4 mM (inactive).
For the compound `O=C(O)C1CSC(c2ccco2)N1` (stereo not given), the Kd was > 4 mM (inactive).
With `O=C(O)CNC(=O)c1ccccc1` the figure was > 4 mM (inactive).
`CC(=O)Nn1cc2c(=O)n(C)c(=O)n(C)c2c1`: the Kd is > 4 mM (inactive).
As to `CS(=O)(=O)c1nncn1-c1ccccc1`, the Kd is > 4 mM (inactive).
With `Cc1ccc(C(=O)N2CCC(C(=O)O)CC2)cc1` the figure was > 4 mM (inactive); with `C[n+]1cc2c3c(ccc2c2ccc4cc5c(cc4c21)OCO5)OCO3`, > 4 mM (inactive); with `CC(=O)Oc1cc2c(c(C)c1OC(C)=O)CC=C1[C@@]2(C)CC[C@@]2(C)C3C[C@](C)(C(=O)O)CC[C@]3(C)CC[C@]12C` (stereo not given in full), > 4 mM (inactive).
With `Cc1ccc(N2C(=O)CC(=O)NC2=O)cc1` the figure was > 4 mM (inactive); with `Cc1occc1C(=O)Nc1cc(C(C)(C)C)on1`, > 4 mM (inactive); with `Cc1sc(N)c(C(N)=O)c1C`, > 4 mM (inactive).
With `O=C1c2ccccc2C(=O)N1Cc1ccco1` the figure was > 4 mM (inactive); with `C=C(C)[C@H]1CC=C(C(=O)O)CC1`, > 4 mM (inactive).
For `OC1CCCN(Cc2ccccc2)C1` (stereo not given), the Kd is > 4 mM (inactive).
For the compound `CCc1noc(C)c1C(=O)N1CCOCC1`, the Kd was > 4 mM (inactive).
With `Cn1c(CSc2nc3ccccc3s2)n[nH]c1=S` the figure was > 4 mM (inactive); with `Cn1c(NCc2ccco2)nc2ccccc21`, > 4 mM (inactive).
As to `COC(=O)c1ccc2nsnc2c1`, the Kd is > 4 mM (inactive).
The value for `CC(=O)Nc1cnn(-c2ccccc2)c(=O)c1Cl` was > 4 mM (inactive).
The value for `NCCCCNCCCN` was > 4 mM (inactive); that for `CNC[C@@H](O)c1ccc(O)c(O)c1` was > 4 mM (inactive); that for `Cc1occc1C(=O)Nc1ccc2c(c1)CCC2` was > 4 mM (inactive).
With `O=S1(=O)C=CC(N2CCCCC2)C1` (stereo not given) the figure was > 4 mM (inactive); with `CN1C(=O)C(Cc2c[nH]c3ccccc23)C(=O)N(C)C1=O`, > 4 mM (inactive); with `Cc1cc(=O)[nH]c(NCc2cccnc2)n1`, > 4 mM (inactive).
In the case of `Cc1nc2sc3c(c2c(=N)n1N)CC(C)(C)OC3`, the Kd is > 4 mM (inactive).
The value for `CC(=O)O[C@H]1CCC2(C)C3=C(CCC2C1(C)C)[C@]1(C)CCC(C(C)CCC=C(C)C)[C@@]1(C)CC3` (stereo not given in full) was > 4 mM (inactive); that for `CCNC(CC(=O)Nc1ccc(F)cc1)C(=O)O` (stereo not given) was > 4 mM (inactive).
